Key:
Type in all cases: in vivo, BALb/c male mice
neutrophils in BAL fluid = test: Number of neutrophils in BAL fluid, mouse model of respiratory damage by air pollutants; details: oral, 11 days (KC3 1×10^9 CFU/mouse; positive control 3 mg per kg BW per day)
Description: (§1) BALb/c male mice (Orient Bio Inc., 8-week-old) were divided into groups of 6 mice, and for all groups except for the normal group, components of air pollutants, i.e., 10 mg/ml of coal combustible materials, 10 mg/ml of fly ash, and 5 mg/ml of diesel exhaust particle (DEP) were diluted so that a final concentration of Alum was 1%, and so that a final concentration of each component was 1.5 mg/ml for coal combustible material/fly ash and […] for DEP in a mixture. Then, on each of the 4th, 7th, and 10th days from the start of the experiment, 50 μl of the mixture was directly injected into the airway and nose of the experimental animals according to the Intra-Nazal-Trachea (INT) injection method described in the document (Lim et al., Free Radic Biol Med. 25(6), 635-644. (1998), Shin et al., Korean J. Medicinal Crop Sci 27(3), 218-231. (2019)).
(§2) For a positive control group (dexamethasone, Sigma D2915), lactic acid bacteria (Lactobacillus plantarum KC3, KC3) was diluted at a concentration of 1×10^9 CFU/mouse in a solution containing 0.5% sodium carboxymethyl cellulose (CMC, 419273, Sigma-Aldrich), and then orally administered at a dosage of 3 mg per kg of body weight (BW) per day (for 11 days). On the 12th day after the start of the experiment, an autopsy was performed on the mice, and bronchoalveolar lavage (BAL) fluid was collected. […]

CXCL-1 = test: Inflammation factors in BAL fluid (ELISA), mouse model of respiratory damage by air pollutants; details: oral, 11 days (KC3 1×10^9 CFU/mouse; positive control 3 mg per kg BW per day)
Description: as §1
(§3) For a positive control group (dexamethasone, Sigma D2915), lactic acid bacteria (Lactobacillus plantarum KC3, KC3) was diluted at a concentration of 1×10^9 CFU/mouse in a solution containing 0.5% sodium carboxymethyl cellulose (CMC, 419273, Sigma-Aldrich), and then orally administered at a dosage of 3 mg per kg of body weight (BW) per day (for 11 days). On the 12th day after the start of the experiment, an autopsy was performed on the mice, and bronchoalveolar lavage (BAL) fluid was collected.
(§4) To confirm effects of the samples in Examples above on expression levels of inflammation factors in the BAL fluid, an experiment was carried out as follows by applying the method described in the document (Brandt E B et al., J. Allergy Clin. Immunol., 132(5):1194-1204, (2013)).
(§5) An evaluation test was performed using ELISA to measure the expression levels of inflammation factors, such as IL-17A, TNF-α MIP2, and CXCL-1, in the BAL fluid.
(§6) The experiment was carried out in the same manner as in Experimental Examples 4-2 and 4-3, except that […].
(§7) The expression levels of IL-17A, TNF-α MIP2, and CXCL-1 in the BAL fluid were measured using ELISA. IL-17A antibodies (M1700, R&D Systems, Minneapolis, USA), TNF-α antibodies (MTA00B, R&D Systems, Minneapolis, USA), MIP2 antibodies (MM200, R&D Systems, Minneapolis, USA), and CXCL-1 antibodies (MKC00B, R&D Systems, Minneapolis, USA) were diluted with a buffer solution and coated micro-wells, and then cultured at 4° C. for 16 hours. Each well was washed with a washing buffer solution three times, and 10-fold diluted […] was dispensed at 100 μl per well.
(§8) After being left at room temperature for one hour, the wells were washed twice. Then, 100 μl of Avidin-HRP-conjugated antibodies (DY007, R&D Systems, Minneapolis, USA) was treated thereon, and the wells were left again at room temperature for one hour, followed by washing again. A TMB substrate solution (DY007, R&D Systems, Minneapolis, USA) was dispensed at 100 μl per well, and the well plate was left in shadow for 30 minutes. Then, 50 μl of a stopping solution (DY007, R&D Systems, Minneapolis, USA) was treated thereon, and absorbance of the […] was measured at 450 nm.

TNF-α = test: as above; details: oral, 11 days (KC3 1×10^9 CFU/mouse; positive control 3 mg per kg BW per day)
Description: as §1, §3, §4, §5, §6, §7, §8

MIP2 = test: as above; details: oral, 11 days (KC3 1×10^9 CFU/mouse; positive control 3 mg per kg BW per day)
Description: as §1, §3, §4, §5, §6, §7, §8

IL-17A = test: as above; details: oral, 11 days (KC3 1×10^9 CFU/mouse; positive control 3 mg per kg BW per day)
Description: as §1, §3, §4, §5, §6, §7, §8

[1] = test system: total number of cells in bronchoalveolar lavage (BAL) fluid; test: Total number of cells in BAL fluid, mouse model of respiratory damage by air pollutants; details: oral, 11 days (KC3 1×10^9 CFU/mouse; positive control 3 mg per kg BW per day), BAL fluid on 12th day
Description: as §1, §2

Compound: C[C@@H]1C[C@H]2[C@@H]3CCC4=CC(=O)C=C[C@]4(C)[C@@]3(F)[C@@H](O)C[C@]2(C)[C@@]1(O)C(=O)CO [Positive control group, dexamethasone]
- Inhibition rate (based on induced group), neutrophils (neutrophils in BAL fluid): 10%
- Neutrophile No of BAL cel (400X) (neutrophils in BAL fluid; Diff-Qick staining, induction group 119 ± 13): 108 ± 9
- CXCL-1 inhibition rate (%) based on induced group (CXCL-1): (46%)
- CXCL-1 concentration in BAL fluid (CXCL-1; ELISA, induction group 327 ± 41): 174 ± 15 pg/mL
- TNF-α inhibition rate (%) based on induced group (TNF-α): (66%)
- TNF-α concentration in BAL fluid (TNF-α; ELISA, induction group 366 ± 45): 121 ± 14 pg/mL
- MIP2 inhibition rate (%) based on induced group (MIP2): (19%)
- MIP2 concentration in BAL fluid (MIP2; ELISA, induction group 68 ± 7): 55 ± 9 pg/mL
- IL-17A inhibition rate (%) based on induced group (IL-17A): (47%)
- IL-17A concentration in BAL fluid (IL-17A; ELISA, induction group 13.4 ± 1.5): 7.0 ± 0.8 pg/mL
- Inhibition rate (based on induction group), total BAL cell [1]: 11%
- Total BAL cell ([1]; induction group 81.2 ± 19.8): 72.6 ± 9.5 ×10^4 cells/ml
